From PubChem BioAssay AID330 (DTP/NCI, 2004)
Where “and” joins values, the source holds several entries; their conditions need not be identical. Equal values may be shown once. Toxic doses and inconclusive results are not listed.

Tested on: P388 leukemia ip, CD2F1 mice, survival T/C
Experiment: NCI In Vivo Anticancer Drug Screen. Data for tumor model P388 Leukemia (intraperitoneal) in CD2F1 (CDF1) mice
Conditions: endpoint: median survival time, higher = longer survival
Method in brief: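 Mice carrying the transplanted tumor received test compound or vehicle. Survival was recorded in each group, and the value is the treated-group measurement divided by that of the vehicle-treated control group.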

[1] = dose: 50.0 mg/kg/injection, schedule: Q01DX009 (ip), vehicle: saline with Tween-80
[2] = dose: 100.0 mg/kg/injection, schedule: Q01DX009 (ip), vehicle: saline with Tween-80
[3] = dose: 200.0 mg/kg/injection, schedule: Q01DX009 (ip), vehicle: saline with Tween-80
[4] = dose: 100.0 mg/kg/injection, schedule: Q01DX001 (ip), vehicle: saline with Tween-80
[5] = dose: 200.0 mg/kg/injection, schedule: Q01DX001 (ip), vehicle: saline with Tween-80
[6] = dose: 400.0 mg/kg/injection, schedule: Q01DX001 (ip), vehicle: saline with Tween-80
[7] = dose: 100.0 mg/kg/injection, schedule: Q04DX003 (ip), vehicle: saline with Tween-80
[8] = dose: 60.0 mg/kg/injection, schedule: Q01DX005 (ip), vehicle: saline with Tween-80
[9] = dose: 120.0 mg/kg/injection, schedule: Q01DX005 (ip), vehicle: saline with Tween-80
[10] = dose: 240.0 mg/kg/injection, schedule: Q01DX005 (ip), vehicle: saline with Tween-80

Question: For `C=C1C(=O)C2=CC1CCC(=O)C1(C)CCC(OC(C)=O)C(C)(C)C1CC2O` (centres undefined), which T/C (dose: 7.5 mg/kg/injection, schedule: Q01DX009 (ip), vehicle: Klucel (hydroxypropylcellulose) (HPC)) is on record?
Answer: 105 % of control and 107 % of control

Question: And the T/C (dose: 15.0 mg/kg/injection, schedule: Q01DX009 (ip), vehicle: Klucel (hydroxypropylcellulose) (HPC))?
Answer: 110 % of control and 120 % of control and 123 % of control

Question: What about the T/C (dose: 30.0 mg/kg/injection, schedule: Q01DX009 (ip), vehicle: Klucel (hydroxypropylcellulose) (HPC)) of the same molecule?
Answer: 102 % of control and 113 % of control and 114 % of control

Question: What about the T/C (dose: 60.0 mg/kg/injection, schedule: Q01DX009 (ip), vehicle: Klucel (hydroxypropylcellulose) (HPC)) of the same molecule?
Answer: 111 % of control and 124 % of control

Question: What does the source list for `O=C1NC(=O)c2c3ccc(c21)CCc1ccc(c2c1C(=O)NC2=O)CC3`?
Answer: T/C [1]: 97 % of control; T/C [2]: 92 % of control; T/C [3]: 92 % of control

Question: Which T/C [4] does the source give for `C=Cc1ccc(NC(=O)CCn2ccc(N)nc2=O)cc1` here?
Answer: 102 % of control

Question: And the T/C [5]?
Answer: 102 % of control

Question: And the T/C [6]?
Answer: 103 % of control

Question: `COc1cccc2c1C(=O)c1c(O)c3c(c(O)c1C2=O)C[C@@](O)(C(C)=O)C[C@@H]3OC1CC([N+]([O-])(Cc2ccccc2)Cc2ccccc2)C(O)C(C)O1` (some centres undefined) was tested. Which T/C (dose: 3.13 mg/kg/injection, schedule: Q04DX003 (ip), vehicle: distilled water + Tween-80) did it give?
Answer: 114 % of control

Question: What about the T/C (dose: 6.25 mg/kg/injection, schedule: Q04DX003 (ip), vehicle: distilled water + Tween-80) of the same molecule?
Answer: 108 % of control and 121 % of control

Question: What about the T/C (dose: 12.5 mg/kg/injection, schedule: Q04DX003 (ip), vehicle: distilled water + Tween-80) of the same molecule?
Answer: 123 % of control

Question: And the T/C (dose: 25.0 mg/kg/injection, schedule: Q04DX003 (ip), vehicle: distilled water + Tween-80)?
Answer: 150 % of control and 183 % of control

Question: And the T/C (dose: 50.0 mg/kg/injection, schedule: Q04DX003 (ip), vehicle: distilled water + Tween-80)?
Answer: 185 % of control and 212 % of control

Question: And the T/C (dose: 100.0 mg/kg/injection, schedule: Q04DX003 (ip), vehicle: distilled water + Tween-80)?
Answer: 237 % of control

Question: Which results are given for `O=C(/C=C/c1ccccc1OCc1cc2ccccc2nc1Cl)c1ccccc1`?
Answer: T/C [4]: 87 % of control; T/C [5]: 90 % of control; T/C [6]: 90 % of control

Question: How did the T/C (dose: 12.5 mg/kg/injection, schedule: Q01DX009 (ip), vehicle: saline with Tween-80) turn out when `C1CN(SSN2CCOCC2)CCO1` was run?
Answer: 113 % of control

Question: And the T/C (dose: 25.0 mg/kg/injection, schedule: Q01DX009 (ip), vehicle: saline with Tween-80)?
Answer: 104 % of control

Question: And the T/C [1]?
Answer: 100 % of control

Question: And the T/C [2]?
Answer: 100 % of control

Question: `CCC1=C(NCc2ccccc2)COC1=O` was tested. Which T/C (dose: 50.0 mg/kg/injection, schedule: Q01DX001 (ip), vehicle: Klucel (hydroxypropylcellulose) (HPC)) did it give?
Answer: 100 % of control

Question: What about the T/C (dose: 100.0 mg/kg/injection, schedule: Q01DX001 (ip), vehicle: Klucel (hydroxypropylcellulose) (HPC)) of the same molecule?
Answer: 101 % of control

Question: What about the T/C (dose: 200.0 mg/kg/injection, schedule: Q01DX001 (ip), vehicle: Klucel (hydroxypropylcellulose) (HPC)) of the same molecule?
Answer: 100 % of control

Question: `CCc1cccc(NC(=O)Sc2ccc(O)cc2)c1` was tested. Which T/C [1] did it give?
Answer: 108 % of control

Question: What about the T/C [2] of the same molecule?
Answer: 106 % of control

Question: Which results are given for `CC12C(=Nc3ccccc31)CCc1ccccc12` (centres undefined)?
Answer: T/C (dose: 50.0 mg/kg/injection, schedule: Q01DX005 (ip), vehicle: saline + Tween-80 + alcohol): 99 % of control; T/C (dose: 100.0 mg/kg/injection, schedule: Q01DX005 (ip), vehicle: saline + Tween-80 + alcohol): 100 % of control; T/C (dose: 200.0 mg/kg/injection, schedule: Q01DX005 (ip), vehicle: saline + Tween-80 + alcohol): 100 % of control

Question: `C=CCNC(=O)/C=C\C(=O)O` was tested. Which T/C (dose: 37.5 mg/kg/injection, schedule: Q01DX009 (ip), vehicle: saline with Tween-80) did it give?
Answer: 98 % of control

Question: What about the T/C (dose: 75.0 mg/kg/injection, schedule: Q01DX009 (ip), vehicle: saline with Tween-80) of the same molecule?
Answer: 94 % of control

Question: What about the T/C (dose: 150.0 mg/kg/injection, schedule: Q01DX009 (ip), vehicle: saline with Tween-80) of the same molecule?
Answer: 94 % of control

Question: What about the T/C (dose: 300.0 mg/kg/injection, schedule: Q01DX009 (ip), vehicle: saline with Tween-80) of the same molecule?
Answer: 100 % of control

Question: For `O=C(Nc1ccc(Sc2ccc(N=Nc3c(O)c(S(=O)(=O)O)cc4cc(S(=O)(=O)O)ccc34)cc2)cc1)c1ccc(N=Nc2ccc3c(S(=O)(=O)O)cccc3c2O)cc1`, which T/C (dose: 50.0 mg/kg/injection, schedule: Q01DX005 (ip), vehicle: saline with Tween-80) is on record?
Answer: 101 % of control

Question: And the T/C (dose: 100.0 mg/kg/injection, schedule: Q01DX005 (ip), vehicle: saline with Tween-80)?
Answer: 102 % of control

Question: What about the T/C (dose: 200.0 mg/kg/injection, schedule: Q01DX005 (ip), vehicle: saline with Tween-80) of the same molecule?
Answer: 95 % of control

Question: What does the source list for `C=C(C)[C@@H](/C=C/[C@@H](C)[C@H]1CC[C@H]2C3=CC[C@H]4C[C@@H](O)CC[C@]4(C)[C@H]3CC[C@]12C)CC`?
Answer: T/C [1]: 90 % of control; T/C (dose: 50.0 mg/kg/injection, schedule: Q04DX003 (ip), vehicle: saline with Tween-80): 95 % of control; T/C [2]: 90 % of control; T/C [7]: 90 % of control; T/C [3]: 100 % of control; T/C (dose: 200.0 mg/kg/injection, schedule: Q04DX003 (ip), vehicle: saline with Tween-80): 95 % of control

Question: What does the source list for `CCCCCCN(CCCCCC)P(=O)(N1CC1)N1CC1`?
Answer: T/C (dose: 12.5 mg/kg/injection, schedule: Q01DX009 (ip), vehicle: saline): 118 % of control; T/C (dose: 25.0 mg/kg/injection, schedule: Q04DX003 (ip), vehicle: saline with Tween-80): 113 % of control; T/C [7]: 100 % of control

Question: What does the source list for `O=c1nc(Oc2ccc(Cl)cc2Cl)oc2cc(Cl)ccc12`?
Answer: T/C [8]: 94 % of control; T/C [9]: 94 % of control

Question: With `CNC(=S)C(N)CCCC1NC(=S)N(C)C1=O` (centres undefined) as the molecule, how does the T/C [8] read?
Answer: 99 % of control

Question: And the T/C [9]?
Answer: 89 % of control

Question: And the T/C [10]?
Answer: 88 % of control

Question: How did the T/C [8] turn out when `O=c1ccnc2ccccn12` was run?
Answer: 94 % of control

Question: What about the T/C [9] of the same molecule?
Answer: 107 % of control

Question: What about the T/C [10] of the same molecule?
Answer: 100 % of control

Question: Which T/C [8] does the source give for `O=c1oc2cc(O)ccc2cc1-c1nc2ccccc2o1` here?
Answer: 97 % of control

Question: And the T/C [9]?
Answer: 98 % of control

Question: And the T/C [10]?
Answer: 96 % of control

Question: How did the T/C (dose: 12.5 mg/kg/injection, schedule: Q04DX002 (ip), vehicle: saline with Tween-80) turn out when `Brc1ccc(N=C2N=C(Nc3ccc(Br)cn3)c3ccccc32)nc1` was run?
Answer: 100 % of control

Question: What about the T/C (dose: 25.0 mg/kg/injection, schedule: Q04DX002 (ip), vehicle: saline with Tween-80) of the same molecule?
Answer: 94 % of control

Question: What about the T/C (dose: 50.0 mg/kg/injection, schedule: Q04DX002 (ip), vehicle: saline with Tween-80) of the same molecule?
Answer: 90 % of control

Question: And the T/C (dose: 200.0 mg/kg/injection, schedule: Q04DX002 (ip), vehicle: saline with Tween-80)?
Answer: 91 % of control

Question: What about the T/C (dose: 400.0 mg/kg/injection, schedule: Q04DX002 (ip), vehicle: saline with Tween-80) of the same molecule?
Answer: 106 % of control

Question: `O=C1c2ccccc2C(=O)c2c(O)c(O)cc(O)c21` was tested. Which T/C (dose: 60.0 mg/kg/injection, schedule: Q01DX005 (ip), vehicle: saline) did it give?
Answer: 94 % of control

Question: What about the T/C (dose: 120.0 mg/kg/injection, schedule: Q01DX005 (ip), vehicle: saline) of the same molecule?
Answer: 91 % of control

Question: And the T/C (dose: 240.0 mg/kg/injection, schedule: Q01DX005 (ip), vehicle: saline)?
Answer: 94 % of control

Question: What does the source list for `O=C(NC(C(=O)O)C1CC(Cl)=NO1)OCc1ccc([N+](=O)[O-])cc1` (centres undefined)?
Answer: T/C (dose: 6.2 mg/kg/injection, schedule: Q04DX003 (ip), vehicle: other): 108 % of control; T/C (dose: 12.5 mg/kg/injection, schedule: Q04DX003 (ip), vehicle: other): 117 % of control

Question: `COC1=CC(=O)C(OC)=C(C2C(=O)N(C)c3ccccc32)C1=O` (centres undefined) was tested. Which T/C (dose: 7.5 mg/kg/injection, schedule: Q01DX005 (ip), vehicle: saline) did it give?
Answer: 111 % of control

Question: And the T/C (dose: 15.0 mg/kg/injection, schedule: Q01DX005 (ip), vehicle: saline)?
Answer: 121 % of control

Question: What about the T/C [8] of the same molecule?
Answer: 117 % of control

Question: How did the T/C (dose: 100.0 mg/kg/injection, schedule: Q01DX001 (ip), vehicle: saline) turn out when `O=S(=O)(C#Cc1ccccc1)C(F)(F)F` was run?
Answer: 105 % of control

Question: What about the T/C (dose: 200.0 mg/kg/injection, schedule: Q01DX001 (ip), vehicle: saline) of the same molecule?
Answer: 105 % of control

Question: What about the T/C (dose: 400.0 mg/kg/injection, schedule: Q01DX001 (ip), vehicle: saline) of the same molecule?
Answer: 106 % of control

Question: How did the T/C (dose: 12.5 mg/kg/injection, schedule: Q01DX009 (ip), vehicle: distilled water + Tween-80) turn out when `CCC1(O)C(=O)OCc2c1cc(-c1ccc(Cl)cc1)nc2OC` (centres undefined) was run?
Answer: 101 % of control

Question: What about the T/C (dose: 25.0 mg/kg/injection, schedule: Q01DX009 (ip), vehicle: distilled water + Tween-80) of the same molecule?
Answer: 100 % of control

Question: What about the T/C (dose: 50.0 mg/kg/injection, schedule: Q01DX009 (ip), vehicle: distilled water + Tween-80) of the same molecule?
Answer: 99 % of control

Question: What about the T/C (dose: 100.0 mg/kg/injection, schedule: Q01DX009 (ip), vehicle: distilled water + Tween-80) of the same molecule?
Answer: 91 % of control

Question: And the T/C (dose: 200.0 mg/kg/injection, schedule: Q01DX009 (ip), vehicle: distilled water + Tween-80)?
Answer: 98 % of control

Question: For `CCO/C=C1N=C(/C=C/c2ccc(Cl)cc2)OC/1=O`, which T/C [8] is on record?
Answer: 91 % of control

Question: And the T/C [9]?
Answer: 90 % of control

Question: `CC(=O)Nc1ccc(O)c(O)c1` was tested. Which T/C [1] did it give?
Answer: 116 % of control and 119 % of control

Question: And the T/C [2]?
Answer: 120 % of control

Question: And the T/C [3]?
Answer: 119 % of control
